# Where two headings read alike, the source gives them in different places.
# Columns and labels:
# Type in all cases: cell-based
# [1] = biological target: T1, BRD4 (Homo sapiens, UniProt O60885); assay: Western blot, protein degradation (DC50)
# T1 construct: endogenous in cells
# Method: (§1) Cells were treated with the compound for a period of time, after that the cells were collected by centrifugation. After washing with PBS, the cells were lysed by adding RIPA buffer; the cell lysate were added to the loading buffer and then appropriate volume were taken and slowly added to the corresponding wells of the gel plate, and run the SDS-PAGE gel (4%-12%). After running the gel, transferred to the PVDF membrane and sealed with 5% skimmed milk powder at room temperature for 1 hour. The membrane was placed in the primary antibody diluted with 5% skimmed milk powder and shaked slowly overnight at 4° C. After incubation with primary antibody, the membrane was washed 3 times using a TBST shaker; added secondary antibody diluted with 5% skimmed milk powder corresponding to the primary antibody, and shaked slowly at room temperature for 1 hour. After incubation with secondary antibody, the membrane was washed 3 times using the TBST shaker again. The PVDF membrane was flatted in the cassette, the strip was evenly infiltrated with ECL developer solution, and placed in ChemDoc XRS+ gel imager for taking pictures. The intensity of protein bands was analyzed quantitatively using ImageJ software.
# [2] = biological target: T2, PLK1 (Homo sapiens, UniProt P53350); assay: Western blot, protein degradation (DC50)
# T2 construct: endogenous in cells
# T2 sequence (P53350 whole entry): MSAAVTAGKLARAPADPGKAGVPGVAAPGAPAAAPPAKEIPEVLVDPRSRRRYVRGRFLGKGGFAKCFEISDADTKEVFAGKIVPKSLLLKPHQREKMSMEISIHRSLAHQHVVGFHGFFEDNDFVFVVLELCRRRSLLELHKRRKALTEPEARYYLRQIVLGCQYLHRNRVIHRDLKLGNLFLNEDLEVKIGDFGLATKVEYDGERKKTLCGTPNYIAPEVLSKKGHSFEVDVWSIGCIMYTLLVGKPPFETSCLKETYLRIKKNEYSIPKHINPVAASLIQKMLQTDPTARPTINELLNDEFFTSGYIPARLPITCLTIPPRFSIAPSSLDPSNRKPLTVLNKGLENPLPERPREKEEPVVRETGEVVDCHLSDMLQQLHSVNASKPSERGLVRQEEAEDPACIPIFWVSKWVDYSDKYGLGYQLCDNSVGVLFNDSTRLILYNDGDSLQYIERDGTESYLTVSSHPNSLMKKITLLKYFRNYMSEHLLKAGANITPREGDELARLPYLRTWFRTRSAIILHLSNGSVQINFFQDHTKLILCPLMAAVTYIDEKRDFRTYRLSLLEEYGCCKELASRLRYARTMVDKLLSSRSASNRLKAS
# Method: as §1
# [3] = system: Human Monocytic Leukemia MV4-11; assay: Cell proliferation experiment (Alarm blue, 72 h, EC50)
# In short: (§2)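 Log-phase cells, passaged at least 2 generations, were seeded in 96-well plates and exposed to test compound in complete medium as a 5-fold dilution series in duplicate for 72 h. Fluorescence was read by Alamar blue and EC50 fitted to a four-parameter curve (Min, Max, Slope).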
# [4] = system: Human Colon Cancer HCT-116; assay: as above; settings: Homo sapiens, HCT-116; HCT116 cells
# In short: as §2
# [5] = Homo sapiens, MV4-11, MV4;11 cells
# [6] = 24 h, western blot, read-out: BRD4 DC50 (24 h)
# [7] = 24 h, western blot, read-out: PLK1 DC50 (24 h)
# [8] = 6 h, western blot, read-out: BRD4 DC50 (6 h)
# [9] = 6 h, western blot, read-out: PLK1 DC50 (6 h)
# [10] = 24 h, read-out: BRD4 DC50 (nM) (24 h)
# [11] = 24 h, read-out: PLK1 DC50 (nM) (24 h)
smiles,measurement,setting,value
CC[C@@H]1C(=O)N(C)c2cnc(Nc3ccc(C(=O)NCCCNCCCCCCC(=O)Nc4cccc5c4CN(C4CCC(=O)NC4=O)C5=O)cc3OC)nc2N1C1CCCC1 (stereo partly shown) [UB-180631],DC50,"[1]; 24 h, read-out: BRD4 DC50 (24 h)",< 10 nM
same,DC50,"[2]; 24 h, read-out: PLK1 DC50 (24 h)",10 to 100 nM
same,EC50,[3]; [5],10 to 100 nM
CC[C@@H]1C(=O)N(C)c2cnc(Nc3ccc(C(=O)NCCCNCCCCCCCC(=O)Nc4cccc5c4CN(C4CCC(=O)NC4=O)C5=O)cc3OC)nc2N1C1CCCC1 (stereo partly shown) [UB-180632],DC50,"[1]; 6 h, read-out: BRD4 DC50 (6 h)",< 10 nM
same,DC50,"[2]; 6 h, read-out: PLK1 DC50 (6 h)",< 10 nM
same,EC50,[3]; [5],10 to 100 nM
CC[C@@H]1C(=O)N(C)c2cnc(Nc3ccc(C(=O)NCCOCCOCCOCCNCCCC(=O)Nc4cccc5c4CN(C4CCC(=O)NC4=O)C5=O)cc3OC)nc2N1C1CCCC1 (stereo partly shown) [UB-180636],DC50,"[1]; 6 h, read-out: BRD4 DC50 (6 h)",10 to 100 nM
same,DC50,"[2]; 6 h, read-out: PLK1 DC50 (6 h)",10 to 100 nM
same,EC50,"[3]; Homo sapiens, MV4;11 cells",10 to 100 nM
Cc1sc2c(c1C)C(c1ccc(Cl)cc1)=N[C@@H](CC(=O)NCCCNCCCC(=O)Nc1cccc3c1CN(C1CCC(=O)NC1=O)C3=O)c1nnc(C)n1-2 (stereo partly shown) [UB-180640],EC50,[3]; [5],100 to 1000 nM
same,EC50,[4],> 1000 nM
Cc1sc2c(c1C)C(c1ccc(Cl)cc1)=N[C@@H](CC(=O)NCCCNCCCCC(=O)Nc1cccc3c1CN(C1CCC(=O)NC1=O)C3=O)c1nnc(C)n1-2 (stereo partly shown) [UB-180641],EC50,[3]; [5],100 to 1000 nM
same,EC50,[4],> 1000 nM
Cc1sc2c(c1C)C(c1ccc(Cl)cc1)=N[C@@H](CC(=O)NCCCNCCCCCC(=O)Nc1cccc3c1CN(C1CCC(=O)NC1=O)C3=O)c1nnc(C)n1-2 (stereo partly shown) [UB-180642],EC50,[3]; [5],100 to 1000 nM
same,EC50,[4],> 1000 nM
CC[C@@H]1C(=O)N(C)c2cnc(Nc3ccc(C(=O)NCCOCCOCCOCCNCCCC(=O)Nc4cccc5c4CN(C4CCC(=O)NC4=O)C5=O)cc3OC)nc2N1C1CCCC1 (stereo partly shown) [UB-180647],DC50,[1]; [6],< 10 nM
same,DC50,[2]; [7],10 to 100 nM
same,EC50,[3]; MV4;11 cells,10 to 100 nM
same,EC50,[4],> 1000 nM
CC[C@@H]1C(=O)N(C)c2cnc(Nc3ccc(C(=O)NCCCNCCCCCC(=O)Nc4cccc5c4CN(C4CCC(=O)NC4=O)C5=O)cc3OC)nc2N1C1CCCC1 (stereo partly shown) [UB-180659],DC50,[1]; [6],< 10 nM
same,DC50,[2]; [7],100 to 1000 nM
same,EC50,"[3]; Homo sapiens, MV4;11 cells",10 to 100 nM
CC[C@@H]1C(=O)N(C)c2cnc(Nc3ccc(C(=O)NCCOCCOCCOCCNCC(=O)Nc4cccc5c4CN(C4CCC(=O)NC4=O)C5=O)cc3OC)nc2N1C1CCCC1 (stereo partly shown) [UB-180663],DC50,[1]; [8],< 10 nM
same,DC50,[1]; [6],< 10 nM
same,DC50,[2]; [9],< 10 nM
same,DC50,[2]; [7],< 10 nM
same,EC50,"[3]; Homo sapiens, MV4;11 cells",10 to 100 nM
CC[C@@H]1C(=O)N(C)c2cnc(Nc3ccc(C(=O)NCCOCCOCCOCCNCCCCC(=O)Nc4cccc5c4CN(C4CCC(=O)NC4=O)C5=O)cc3OC)nc2N1C1CCCC1 (stereo partly shown) [UB-180666],DC50,[1]; [6],< 10 nM
same,DC50,[2]; [7],10 to 100 nM
same,EC50,[3]; [5],10 to 100 nM
CC[C@@H]1C(=O)N(C)c2cnc(Nc3ccc(C(=O)NCCCNCCCCC(=O)Nc4cccc5c4CN(C4CCC(=O)NC4=O)C5=O)cc3OC)nc2N1Cc1ccc(Cl)s1 (stereo partly shown) [UB-180673],DC50,[1]; [8],10 to 100 nM
same,DC50,[2]; [9],10 to 100 nM
same,EC50,[3]; [5],10 to 100 nM
CC[C@@H]1C(=O)N(C)c2cnc(Nc3ccc(C(=O)NCCCNCCCCCCCC(=O)Nc4cccc5c4CN(C4CCC(=O)NC4=O)C5=O)cc3OC)nc2N1Cc1ccc(Cl)s1 (stereo partly shown) [UB-180674],DC50,[1]; [8],< 10 nM
same,DC50,[2]; [9],< 10 nM
same,EC50,[3]; [5],< 10 nM
CC[C@@H]1C(=O)N(C)c2cnc(Nc3ccc(C(=O)NC4CCN(CCNCCOCC(=O)Nc5cccc6c5CN(C5CCC(=O)NC5=O)C6=O)C4)cc3OC)nc2N1C1CCCC1 (stereo partly shown) [UB-180703],DC50,[1]; [6],< 10 nM
same,DC50,[2]; [7],10 to 100 nM
same,EC50,[3]; [5],10 to 100 nM
CC[C@@H]1C(=O)N(C)c2cnc(Nc3ccc(C(=O)NCc4cn(CCCN(CCC(=O)Nc5cccc6c5CN(C5CCC(=O)NC5=O)C6=O)C(=O)OCc5ccc(NC(=O)[C@H](CCCNC(N)=O)NC(=O)[C@@H](NC(=O)CCCCCN6C(=O)C=CC6=O)C(C)C)cc5)nn4)cc3OC)nc2N1C1CCCC1 (stereo partly shown) [UB-180717],DC50,[1]; [10],10 to 100 nM
same,DC50,[2]; [11],10 to 100 nM
same,EC50,[3]; [5],100 to 1000 nM
CC[C@@H]1c2c(C#N)ncn2-c2cnc(Nc3ccc(C(=O)NCc4cn(CCNCCOCC(=O)Nc5cccc6c5CN(C5CCC(=O)NC5=O)C6=O)nn4)cc3OC)nc2N1C1CCCC1 (stereo partly shown) [UB-180718],DC50,[1]; [10],100 to 1000 nM
same,DC50,[2]; [11],100 to 1000 nM
same,EC50,[3]; [5],100 to 1000 nM
CC[C@@H]1C(=O)N(C)c2cnc(Nc3ccc(C(=O)NC4CCN(CCOCCNCC(=O)Nc5cccc6c5CN(C5CCC(=O)NC5=O)C6=O)CC4)cc3OC)nc2N1Cc1cnc(C)s1 (stereo partly shown) [UB-180745],DC50,"[1]; 6 h, read-out: BRD4 DC50 (nM) (6 h)",< 10 nM
same,DC50,[1]; [10],< 10 nM
same,DC50,"[2]; 6 h, read-out: PLK1 DC50 (nM) (6 h)",> 1000 nM
same,DC50,[2]; [11],< 10 nM
same,EC50,[3]; [5],< 10 nM
CC[C@@H]1C(=O)N(C)c2cnc(Nc3ccc(C(=O)NC4CCN(CCOCCN(CC)CC(=O)Nc5cccc6c5CN(C5CCC(=O)NC5=O)C6=O)CC4)cc3OC)nc2N1C1CCCC1 (stereo partly shown) [UB-180828],EC50,[3]; [5],< 10 nM
same,EC50,[4],100 to 1000 nM
